For five compounds, IC50, AC50 and EC50 results are on record in ChEMBL document CHEMBL1201862, “PubChem BioAssay data set” (2004).

Assay [1] concerns the target Large T antigen (Simian virus 40, UniProt P03070). It counts as functional, Betapolyomavirus macacae.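 Further: Confirmatory-stage PubChem screen for compounds that inhibit SV40 T antigen.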
For assay [2], the target named is FAD-linked sulfhydryl oxidase ALR (Homo sapiens, UniProt P55789). Description: inhibitors of human ALR sulfhydryl oxidase, dose response, biochemical, H2O2 detection, luminescence, cherry-pick (AID 493248).
Assay [3] concerns the target T1, Microphthalmia-associated transcription factor (Homo sapiens, UniProt O75030).
T1 sequence (O75030 whole entry): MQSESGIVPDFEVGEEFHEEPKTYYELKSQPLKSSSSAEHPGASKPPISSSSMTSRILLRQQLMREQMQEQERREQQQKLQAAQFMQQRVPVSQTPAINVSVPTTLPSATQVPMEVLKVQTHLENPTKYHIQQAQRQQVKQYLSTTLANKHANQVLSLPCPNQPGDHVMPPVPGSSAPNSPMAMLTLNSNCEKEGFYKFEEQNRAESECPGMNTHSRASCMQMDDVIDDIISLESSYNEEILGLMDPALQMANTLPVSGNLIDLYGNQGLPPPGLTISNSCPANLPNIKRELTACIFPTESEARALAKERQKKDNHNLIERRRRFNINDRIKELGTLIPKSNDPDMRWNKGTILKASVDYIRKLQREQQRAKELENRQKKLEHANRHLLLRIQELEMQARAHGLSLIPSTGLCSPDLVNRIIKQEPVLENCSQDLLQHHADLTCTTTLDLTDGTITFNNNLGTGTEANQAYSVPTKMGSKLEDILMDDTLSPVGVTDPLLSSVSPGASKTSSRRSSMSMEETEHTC
Description: TRPM1 promoter luciferase signal decrease, dose response, MITF inhibitor project, cell-based, SK-MEL-5, cherry-picked, set 3 (AID 493073).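 Further: SK-MEL-5 melanoma cells with luciferase driven by the MITF target TRPM1 promoter.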 The class given is functional.

Assay [4] has as its system A-375. Description: MITF: Counter assay: A375 proliferation Measured in Cell-Based System Using Plate Reader - 2084-03_Inhibitor_Dose_DryPowder_Activity. [Related pubchem assays (depositor defined):AID488944]. The class given is functional. Conditions: Homo sapiens.
For assay [5], the system named is A-375. Description: A375 melanoma cell viability reduction, dose response, counter-screen for MITF modulator project, cherry-pick samples, set 2 (AID 540335). It counts as functional, cell-based. Conditions: Homo sapiens.
The nature of assay [6]: Counterscreen for IDE inhibitors: Luminescence-based cell-based high throughput dose response assay to identify compounds that are cytotoxic to HEK cells. [Related pubchem assays: 434962 (Primary screen (IDE inhibitors in singlicate)), 449730 (Counterscreen (Cytotoxicity in triplicate)), 435028 (Confirmation (IDE inhibitors in triplicate)) …. The class given is functional. Conditions: HEK293.

Assay [7] has as its target T2, Insulin-degrading enzyme (Homo sapiens, UniProt P14735).
T2 sequence (P14735 whole entry): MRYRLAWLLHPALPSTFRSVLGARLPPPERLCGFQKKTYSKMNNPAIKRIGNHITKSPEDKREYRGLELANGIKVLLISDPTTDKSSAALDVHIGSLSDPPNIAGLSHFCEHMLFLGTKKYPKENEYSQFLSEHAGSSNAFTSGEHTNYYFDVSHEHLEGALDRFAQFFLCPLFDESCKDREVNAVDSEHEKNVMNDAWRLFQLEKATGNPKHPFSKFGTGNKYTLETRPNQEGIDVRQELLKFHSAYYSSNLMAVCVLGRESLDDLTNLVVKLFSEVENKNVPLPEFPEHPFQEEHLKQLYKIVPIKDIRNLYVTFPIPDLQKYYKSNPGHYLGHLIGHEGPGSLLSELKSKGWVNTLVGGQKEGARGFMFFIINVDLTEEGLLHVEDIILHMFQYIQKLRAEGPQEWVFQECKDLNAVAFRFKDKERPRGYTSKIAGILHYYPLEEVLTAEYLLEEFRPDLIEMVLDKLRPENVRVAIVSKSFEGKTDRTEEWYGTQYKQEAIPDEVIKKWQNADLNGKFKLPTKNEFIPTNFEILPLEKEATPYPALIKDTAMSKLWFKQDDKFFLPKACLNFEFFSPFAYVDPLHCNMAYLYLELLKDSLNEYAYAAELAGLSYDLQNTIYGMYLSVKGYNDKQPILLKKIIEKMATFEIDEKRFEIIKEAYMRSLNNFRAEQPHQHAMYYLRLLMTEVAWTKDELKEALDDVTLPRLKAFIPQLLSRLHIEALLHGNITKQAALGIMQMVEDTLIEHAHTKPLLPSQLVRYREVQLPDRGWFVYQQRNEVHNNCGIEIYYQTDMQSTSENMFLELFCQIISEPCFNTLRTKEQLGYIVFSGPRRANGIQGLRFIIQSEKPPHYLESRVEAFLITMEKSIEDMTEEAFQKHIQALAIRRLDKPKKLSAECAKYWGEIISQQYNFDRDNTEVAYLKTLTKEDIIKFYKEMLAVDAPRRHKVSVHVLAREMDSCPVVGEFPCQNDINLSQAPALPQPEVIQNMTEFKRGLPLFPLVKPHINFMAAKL
Description: Dose Response: Fluorescence polarization-based cell-based high throughput dose response assay for inhibitors of insulin-degrading enzyme (IDE). [Related pubchem assays: 434962 (Primary screen (IDE inhibitors in singlicate)), 449730 (Counterscreen (Cytotoxicity in triplicate)), 435028 (Confirmation (IDE inhibitors in triplicate)), 434984 (Summary …. The class given is functional.

The test system of assay [8] is Candida albicans. Description: growth inhibition of resistant C. albicans, dose response, CaCi-8 strain, fluconazole, dry powder, set 4 (AID 488950). The class given is functional, organism-based.
In assay [9] the test system is Candida albicans. Description: C. albicans growth inhibition with fluconazole, dose response, antifungal resistance reversal project, CaCi-2 strain, Alamar Blue, dry powder, set 2 (AID 488930). It counts as functional, organism-based.
In assay [10] the test system is Candida albicans. Description: fluconazole resistance reversal in C. albicans, dose response, CaCi-2 strain, Alamar Blue, dry powder, set 4 (AID 488943). It counts as functional, organism-based.
Assay [11] deals with Candida albicans. Description: growth inhibition of azole-resistant C. albicans, dose response, CaCi-8 strain, Alamar Blue, dry powder, set 2 (AID 488909). The class given is functional, organism-based.
For assay [12], the target named is T3, Beta-2 adrenergic receptor (Homo sapiens, UniProt P07550). Description: beta2AR agonists driving receptor internalization, dose response, cell-based, FAP fluorogen, flow cytometry, cherry pick 1 (AID 588763). The class given is functional.
Assay [13] deals with T3, Beta-2 adrenergic receptor. Description: Dose response for HTS for Beta-2AR agonists via FAP method from Powderset2. The class given is functional.
Assay [14] concerns INS1. Description: protection of INS-1E cells from cytokine death, dose response, ATP luminescence, dry powder (AID 488844). The class given is functional, cell-based. Conditions: Rattus norvegicus.
Assay [15] has as its system INS1. Description: protection from cytokine-driven beta-cell apoptosis, dose response, JC-1 fluorescence, INS-1E, dry powder, set 2 (AID 488867). The class given is functional, cell-based. Conditions: Rattus norvegicus.
In assay [16] the test system is INS1. Description: protection from cytokine-induced mitochondrial depolarization, dose response, cell-based, INS-1E, JC-1 fluorescence ratio, dry powder (AID 488931). It counts as functional. Conditions: Rattus norvegicus.
The target of assay [17] is Hexokinase-1 (Homo sapiens, UniProt P19367). Description: SAR analysis of small molecule inhibitors of hexokinase domain containing I (HKDC1) in the hexokinase 1 selectivity assay. [Related pubchem assays (depositor defined):AID493160, AID493190]. It counts as functional.
Assay [18] concerns the target T4, Hexokinase HKDC1 (Homo sapiens, UniProt Q2TB90).
T4 sequence (Q2TB90 whole entry): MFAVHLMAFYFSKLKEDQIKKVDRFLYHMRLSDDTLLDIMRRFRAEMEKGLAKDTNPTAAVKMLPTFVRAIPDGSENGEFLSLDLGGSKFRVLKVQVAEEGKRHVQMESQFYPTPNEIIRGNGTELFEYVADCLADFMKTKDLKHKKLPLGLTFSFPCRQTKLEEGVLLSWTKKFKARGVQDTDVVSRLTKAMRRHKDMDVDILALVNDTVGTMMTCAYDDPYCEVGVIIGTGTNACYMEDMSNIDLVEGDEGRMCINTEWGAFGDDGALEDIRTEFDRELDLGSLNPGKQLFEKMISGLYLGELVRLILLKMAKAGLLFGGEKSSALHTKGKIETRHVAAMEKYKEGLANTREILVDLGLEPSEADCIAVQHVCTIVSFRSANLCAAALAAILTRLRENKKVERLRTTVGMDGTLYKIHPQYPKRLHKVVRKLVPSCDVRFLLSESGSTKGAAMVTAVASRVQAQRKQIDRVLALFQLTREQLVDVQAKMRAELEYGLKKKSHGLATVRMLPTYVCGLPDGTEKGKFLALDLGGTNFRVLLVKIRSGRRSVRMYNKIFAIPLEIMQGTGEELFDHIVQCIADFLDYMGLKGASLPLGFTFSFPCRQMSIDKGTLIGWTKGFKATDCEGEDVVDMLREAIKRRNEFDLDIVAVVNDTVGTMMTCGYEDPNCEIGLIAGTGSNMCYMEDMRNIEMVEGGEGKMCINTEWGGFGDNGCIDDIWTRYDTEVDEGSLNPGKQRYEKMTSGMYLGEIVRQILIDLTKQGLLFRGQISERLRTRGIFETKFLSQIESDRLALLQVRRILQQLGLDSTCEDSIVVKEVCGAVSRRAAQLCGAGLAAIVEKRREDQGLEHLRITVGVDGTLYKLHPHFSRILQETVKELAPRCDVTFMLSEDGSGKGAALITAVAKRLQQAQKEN
Description: SAR analysis of small molecule inhibitors of hexokinase domain containing I (HKDC1). [Related pubchem assays (depositor defined):AID493160, AID493190]. It counts as functional.

Active and inactive are the calls of the source.

T3 sequence (P07550 whole entry): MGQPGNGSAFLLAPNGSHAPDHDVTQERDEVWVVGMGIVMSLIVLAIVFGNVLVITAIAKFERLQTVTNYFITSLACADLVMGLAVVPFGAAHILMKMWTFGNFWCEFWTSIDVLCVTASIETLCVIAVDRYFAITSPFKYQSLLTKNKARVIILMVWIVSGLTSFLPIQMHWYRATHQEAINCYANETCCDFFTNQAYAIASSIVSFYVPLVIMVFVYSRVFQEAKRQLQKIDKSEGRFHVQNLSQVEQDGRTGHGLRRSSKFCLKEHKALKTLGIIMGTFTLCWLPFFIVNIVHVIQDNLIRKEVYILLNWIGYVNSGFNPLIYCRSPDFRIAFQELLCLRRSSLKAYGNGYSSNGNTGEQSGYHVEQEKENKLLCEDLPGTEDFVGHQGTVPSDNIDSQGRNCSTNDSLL
FAD-linked sulfhydryl oxidase ALR, sequence (P55789 whole entry): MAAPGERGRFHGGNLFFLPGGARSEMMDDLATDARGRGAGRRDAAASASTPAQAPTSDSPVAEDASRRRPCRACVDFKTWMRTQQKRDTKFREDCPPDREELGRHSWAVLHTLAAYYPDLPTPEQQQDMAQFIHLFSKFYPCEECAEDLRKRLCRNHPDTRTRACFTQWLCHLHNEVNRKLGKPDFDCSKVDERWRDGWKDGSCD
Hexokinase-1, sequence (P19367 whole entry, the tested form may be a part): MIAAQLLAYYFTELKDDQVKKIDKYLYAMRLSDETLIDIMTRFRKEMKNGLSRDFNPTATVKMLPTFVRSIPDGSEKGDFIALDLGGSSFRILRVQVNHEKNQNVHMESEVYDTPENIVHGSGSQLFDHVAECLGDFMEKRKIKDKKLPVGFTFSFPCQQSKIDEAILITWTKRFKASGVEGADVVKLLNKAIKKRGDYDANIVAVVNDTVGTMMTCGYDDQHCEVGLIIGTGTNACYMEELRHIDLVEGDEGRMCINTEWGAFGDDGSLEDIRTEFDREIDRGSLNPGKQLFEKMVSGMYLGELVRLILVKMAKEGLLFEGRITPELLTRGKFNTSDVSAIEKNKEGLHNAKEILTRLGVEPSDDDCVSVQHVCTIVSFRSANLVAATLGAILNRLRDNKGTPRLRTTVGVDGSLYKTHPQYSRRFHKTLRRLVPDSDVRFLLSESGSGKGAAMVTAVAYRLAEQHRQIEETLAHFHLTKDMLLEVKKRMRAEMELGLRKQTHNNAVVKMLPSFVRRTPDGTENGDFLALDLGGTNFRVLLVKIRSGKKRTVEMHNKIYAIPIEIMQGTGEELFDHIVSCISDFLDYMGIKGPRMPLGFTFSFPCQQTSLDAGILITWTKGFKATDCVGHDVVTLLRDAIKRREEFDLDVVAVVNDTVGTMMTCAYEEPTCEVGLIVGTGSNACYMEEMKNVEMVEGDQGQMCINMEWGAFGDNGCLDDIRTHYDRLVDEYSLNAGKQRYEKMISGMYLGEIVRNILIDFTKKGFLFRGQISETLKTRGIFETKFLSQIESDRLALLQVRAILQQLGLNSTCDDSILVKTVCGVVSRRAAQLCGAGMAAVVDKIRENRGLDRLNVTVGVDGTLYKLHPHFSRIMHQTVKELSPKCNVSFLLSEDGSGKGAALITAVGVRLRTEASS
Large T antigen, sequence (P03070 whole entry): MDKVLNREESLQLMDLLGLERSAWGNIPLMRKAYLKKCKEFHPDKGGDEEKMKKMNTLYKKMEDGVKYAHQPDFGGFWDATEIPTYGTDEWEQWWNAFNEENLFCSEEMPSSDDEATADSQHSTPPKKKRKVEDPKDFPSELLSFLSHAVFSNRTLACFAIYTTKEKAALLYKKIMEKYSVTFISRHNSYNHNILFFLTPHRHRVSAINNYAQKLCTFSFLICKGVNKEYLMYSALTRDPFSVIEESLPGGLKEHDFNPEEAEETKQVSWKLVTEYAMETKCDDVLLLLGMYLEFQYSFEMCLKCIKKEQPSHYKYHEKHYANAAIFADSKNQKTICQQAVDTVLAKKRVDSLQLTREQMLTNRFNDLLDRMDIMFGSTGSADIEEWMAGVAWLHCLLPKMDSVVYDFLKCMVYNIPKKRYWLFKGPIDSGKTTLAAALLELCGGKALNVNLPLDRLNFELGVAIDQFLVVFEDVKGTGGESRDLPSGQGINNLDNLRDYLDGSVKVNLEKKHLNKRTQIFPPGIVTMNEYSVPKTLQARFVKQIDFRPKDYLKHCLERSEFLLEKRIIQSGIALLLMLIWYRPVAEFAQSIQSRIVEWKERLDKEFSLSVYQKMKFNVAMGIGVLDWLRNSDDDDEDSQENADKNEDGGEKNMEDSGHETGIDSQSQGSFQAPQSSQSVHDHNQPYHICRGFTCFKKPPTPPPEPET

On to `O=C1NC(=O)N(c2ccccc2)C(=O)/C1=C/C=C/c1ccco1`, for which, in [1], the IC50 is 26.5 µM (active). In addition, the AC50 in [2] is 0.449 µM (active); in assay [3], 8.29 µM (active); in assay [4], > 35 µM (active); in [5] it was > 35 µM (active).
Take `O=C(C1CCC1)N1CCN(c2ccnc3cc(Cl)ccc23)CC1`: the IC50 in [6] is reported as 22.1 µM (not active); in assay [7], 31.6 µM (not active). Also, the AC50 was 5 µM (active) in [8], 1.5 µM (active) in [9], 16.9 µM (active) in assay [10] and 0.58 µM (active) in assay [11].
On to `CCOC(=O)c1ccc(NC(=O)Cn2nnc(-c3ccccc3)n2)cc1`, for which the results for the EC50 in [12] and in assay [13] were 1.18 µM (active) and 1.31 µM (active), respectively.
On to `C[C@@H]1CN([C@H](C)CO)C(=O)c2cccc(NC(=O)Nc3ccc(F)cc3)c2O[C@H]1CN(C)S(=O)(=O)c1ccc(Cl)cc1`, for which the AC50 was 48 µM (active) in [14], 227 µM (active) in [15] and 62.1 µM (active) in [16].
For `N#Cc1ccc(CSc2nnc(NC(=O)c3ccc4ccccc4n3)s2)cc1`, the IC50 in [17] and in assay [18] was > 80 µM (inactive) each time.
